Results reported in patent US20180221296A1, “INTRASITE ADMINISTRATION AND DOSING METHODS AND PHARMACEUTICALS FOR USE THEREIN” (HKL Medical, LLC, priority 2017, published 2018).
Like-named read-outs stand apart in the source and are kept apart here.

Legend:
[1] = cited from earlier work
[2] = in vivo; cited from earlier work
[3] = Intrasite vancomycin pharmacodynamics trial: systemic circulation serum vancomycin concentration; format: in vivo, human; conditions: all measured time-points, single IS dose (2 mg/cm^2; moderate doses); detectability limit printed >1.7 μg/ml
Experimental: (§1) Intrasite Vancomycin Pharmacodynamics Trial.
Intrasite Dosing of Vancomycin.
Systemic Circulation Serum Vancomycin Concentrations after IS Dose. In all of the 10 patients of the 2 mg/cm^2 dose cohort serum vancomycin levels remained undetectable at all measured time-points after a single IS dose. Detectability limit in these experiments was >1.7 μg/ml. This is interpreted as a strong indicator of safety with regard to systemic side effects and toxicities as well as evidence of a very wide therapeutic index when vancomycin is administered IS. This strongly contrasts to the higher probability of systemic toxicity and narrow therapeutic index when vancomycin is administered IV.

[4] = test system: Vancomycin-Resistant Staphylococcus aureus (VRSA); conditions: certain strains of VRSA; cited from earlier work
[5] = Intrasite vancomycin pharmacodynamics trial: wound seroma vancomycin levels via wound drain
Experimental: Intrasite Vancomycin Pharmacodynamics Trial. A single dose cohort pharmacodynamics trial was performed under FDA IND# 117494, the first FDA IND awarded for intrasite vancomycin. This dose cohort involved administration of a low dose of intrasite lyophilized vancomycin into complex instrumented spinal surgery wounds in adult patients. At multiple specific time points after surgery measurements were taken of vancomycin and […] levels in the blood stream and from the wound seroma fluid (via the wound drain). Measurements of endotoxin levels within the blood stream and seroma fluid were also taken at the same time points following surgery. All personnel present during administration of IS vancomycin were required to wear a certified fit N-90 mask to prevent inhalation of aerosolized vancomycin powder, which is a known safety risk for pulmonary fibrosis.
Intrasite Dosing of Vancomycin. Intrasite dosing was based on the surface area of the wound (tissues within the spinal wound lying deep to the skin). Wound surface area was estimated by a wound Length×Depth×2 calculation where length and mean depth were measured directed by the surgeon after surgical opening of the wound was completed. To assure safety, the maximum IS dose of vancomycin given to patients in this cohort was limited to well below the normal maximum safe IV dose of 2.5 g. Given that maximum wound surface areas created in spinal deformity patients are on the order of 1000 cm^2, a surface area dose of 2 mg/cm^2 provides for a maximum single dose of ˜2 g IS vancomycin, considered safe even if the entire dose absorbed into the circulation. To improve the homogeneity of IS dose application one third of the total calculated dose was delivered to the subepidermal tissues of the wound, superficial to the perimuscular fascia, one third of the total dose was applied to the subfascial muscle, bone, and other tissues, and one third of the total dose was milled with the bone graft before implantation.
Wound Vancomycin Levels Following a Single Intrasite Dose. Wound seroma vancomycin levels were measured via the wound drain at multiple time points for 4 days after a single intrasite dose given at the conclusion of surgery. […] However, vancomycin is a time-dependent killer of microbes and levels must exceed kill concentrations for up to 48 hrs to be completely effective.

[6] = Intrasite vancomycin pharmacodynamics trial: adverse reactions; format: in vivo, human; conditions: IS dose 2 mg/cm^2, spinal surgery patients
Description: as §1
Adverse Reactions to IS Vancomycin. […] There was one example of a post-operative gram-negative bacterial surgical site infection which could not have been prevented by vancomycin because its spectrum of antimicrobial effects dies not cover this organism.

[7] = measured at 2 hrs after single IS dose 2 mg/cm^2, 10 patients
[8] = single IS dose 2 mg/cm^2, 10 patients
[9] = within the first 48 hrs after single IS dose 2 mg/cm^2, 10 patients

NC[C@H]1CC[C@H](C(=O)O)CC1 [TXA, trans-4-[aminomethyl]cyclohexanecarboxylic acid]
oral bioavailability ([1]; oral): 34% | half-life in the blood stream [2]: approximately 2 hrs

CN[C@H](CC(C)C)C(=O)N[C@H]1C(=O)N[C@@H](CC(N)=O)C(=O)N[C@H]2C(=O)N[C@H]3C(=O)N[C@H](C(=O)N[C@H](C(=O)O)c4cc(O)cc(O)c4-c4cc3ccc4O)[C@H](O)c3ccc(c(Cl)c3)Oc3cc2cc(c3O[C@@H]2O[C@H](CO)[C@@H](O)[C@H](O)[C@H]2O[C@H]2C[C@](C)(N)[C@H](O)[C@H](C)O2)Oc2ccc(cc2Cl)[C@H]1O [vancomycin]
serum vancomycin level after IS dose [3]: undetectable | minimum 90% bactericidal concentration (MBC^90) [4]: 64 µg/mL | highest vancomycin concentration, subfascial wound compartment [5, 7]: 952 µg/mL | highest vancomycin concentration, suprafascial wound compartment [5, 7]: 6110 µg/mL | time vancomycin remains in high enough wound concentration for efficient suppression of gram-positive microorganisms ([5]; moderate IS doses, also with seroma fluid removed via drains, preliminary evidence): at least 4 days | time mean subfascial vancomycin concentration exceeds threshold to kill VRSA (128 μg/ml) [5, 8]: less than 24 hrs | time mean suprafascial vancomycin concentration exceeds threshold to kill VRSA (128 μg/ml) [5, 8]: more than 48 hrs | lowest vancomycin concentration, subfascial wound compartment [5, 9]: 4.1 µg/mL | lowest vancomycin concentration, suprafascial wound compartment [5, 9]: 16.2 µg/mL | adverse reactions related to IS vancomycin [6]: no patient- or practitioner-identified adverse reactions

CO[C@H]1/C=C/O[C@@]2(C)Oc3c(C)c(O)c4c(O)c(c5c(nc6cc(C)ccn65)c4c3C2=O)NC(=O)/C(C)=C\C=C\[C@H](C)[C@H](O)[C@@H](C)[C@@H](O)[C@@H](C)[C@H](OC(C)=O)[C@@H]1C [Rifaximin]
oral bioavailability ([1]; in vivo, po): < 0.4%
